Assay results: patent publication US20160362408A1 (Bayer Pharma Aktiengesellschaft, priority 2013, published 2016)

Biological target: T1, recombinant guanylate cyclase reporter cell line (Rattus norvegicus, UniProt P19686+P20595)
T1 construct: expressed in transfected cells
T1 sequence (P19686 1-690): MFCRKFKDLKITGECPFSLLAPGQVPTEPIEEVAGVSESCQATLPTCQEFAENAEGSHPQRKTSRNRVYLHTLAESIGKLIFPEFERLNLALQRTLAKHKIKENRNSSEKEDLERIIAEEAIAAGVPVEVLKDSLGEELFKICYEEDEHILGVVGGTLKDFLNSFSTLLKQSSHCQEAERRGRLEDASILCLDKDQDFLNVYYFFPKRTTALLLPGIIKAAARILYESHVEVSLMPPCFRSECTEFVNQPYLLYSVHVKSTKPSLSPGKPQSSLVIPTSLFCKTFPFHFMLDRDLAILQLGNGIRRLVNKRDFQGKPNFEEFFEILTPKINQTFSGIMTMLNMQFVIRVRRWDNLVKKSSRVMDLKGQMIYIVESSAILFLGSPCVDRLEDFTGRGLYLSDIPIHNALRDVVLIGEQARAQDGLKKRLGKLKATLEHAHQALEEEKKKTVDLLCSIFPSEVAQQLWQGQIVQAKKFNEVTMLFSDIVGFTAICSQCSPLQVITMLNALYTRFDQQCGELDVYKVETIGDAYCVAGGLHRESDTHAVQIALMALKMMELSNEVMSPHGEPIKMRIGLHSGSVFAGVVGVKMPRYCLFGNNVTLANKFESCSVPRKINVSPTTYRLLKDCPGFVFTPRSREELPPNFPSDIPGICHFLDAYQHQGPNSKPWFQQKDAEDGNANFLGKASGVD
T1 sequence (P20595 1-619): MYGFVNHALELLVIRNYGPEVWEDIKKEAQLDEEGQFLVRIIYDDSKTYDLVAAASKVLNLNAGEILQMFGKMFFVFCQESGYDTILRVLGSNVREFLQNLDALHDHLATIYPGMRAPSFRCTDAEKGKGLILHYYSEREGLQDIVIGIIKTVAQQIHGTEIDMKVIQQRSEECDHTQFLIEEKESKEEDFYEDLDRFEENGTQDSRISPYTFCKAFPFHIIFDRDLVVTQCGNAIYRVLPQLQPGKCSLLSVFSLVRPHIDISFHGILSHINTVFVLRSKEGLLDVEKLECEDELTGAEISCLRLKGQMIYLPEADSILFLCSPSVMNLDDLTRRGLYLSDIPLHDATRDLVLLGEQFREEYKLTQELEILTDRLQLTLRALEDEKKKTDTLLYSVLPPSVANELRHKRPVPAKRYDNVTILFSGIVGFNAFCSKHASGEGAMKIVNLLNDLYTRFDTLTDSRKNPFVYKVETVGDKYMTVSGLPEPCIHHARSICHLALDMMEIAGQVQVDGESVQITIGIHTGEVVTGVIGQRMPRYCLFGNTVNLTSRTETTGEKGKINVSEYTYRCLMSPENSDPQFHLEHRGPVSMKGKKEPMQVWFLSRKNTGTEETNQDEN
Experiment: Effect on a recombinant guanylate cyclase reporter cell line
Format: cell-based
Conditions: MEC = minimum effective concentration; in some cases mean values for individual determinations
Protocol: B-2. Effect on a Recombinant Guanylate Cyclase Reporter Cell Line
The cellular action of the compounds of the invention is determined using a recombinant guanylate cyclase reporter cell line, as described in F. Wunder et al., Anal. Biochem. 339, 104-112 (2005).
Representative MEC values (MEC=minimum effective concentration) for the compounds of the invention are shown in the table below (in some cases as mean values for individual determinations): […]

| MEC [µM] | SMILES |
| --- | --- |
| 0.55 | Cc1cc(NC(=O)c2c(C)nc3c(OCc4c(F)cccc4F)cccn23)c2ccccc2n1 [Example 69] |
| 0.3 | Cc1cc2c(NC(=O)c3c(C)nc4c(OCc5c(F)cccc5F)cccn34)cccc2nn1 [Example 70] |
| 0.1 | Cc1nc2c(OCc3c(F)cccc3F)cccn2c1C(=O)Nc1ccnc2ccc(Cl)cc12 [Example 71] |
| 0.3 | Cc1nc2c(OCc3c(F)cccc3F)cccn2c1C(=O)Nc1ccc(C)c2ncccc12 [Example 72] |
| 1.0 | Cc1nc2c(OCc3c(F)cccc3F)cccn2c1C(=O)Nc1cccc2ccc(O)cc12 [Example 74] |
| 0.1 | Cc1nc2c(OCc3c(F)cccc3F)cccn2c1C(=O)Nc1c(C(F)(F)F)n[nH]c1C [Example 76, 8-[(2,6-Difluorobenzyl)oxy]-2-methyl-N-[5-methyl-3-(trifluoromethyl)-1H-pyrazol-4-yl]imidazo[1,2-a]pyridine-3-carboxamide] |
| 0.1 | Cc1nc2c(OCc3c(F)cccc3F)cccn2c1C(=O)Nc1ccnc2cc(Cl)ccc12 [Example 77, N-(7-Chloroquinolin-4-yl)-8-[(2,6-difluorobenzyl)oxy]-2-methylimidazo[1,2-a]pyridine-3-carboxamide] |
| 1.0 | Cc1nc2c(OCc3c(F)cccc3F)cccn2c1C(=O)Nc1ccnc2c(F)cccc12 [Example 78] |
| 0.1 | Cc1nc2c(OCc3c(F)cccc3F)cccn2c1C(=O)Nc1ccnc2ccc(C(F)(F)F)cc12 [Example 79] |
| 0.3 | Cc1nc2c(OCc3c(F)cccc3F)cccn2c1C(=O)Nc1n[nH]c2ccccc12 [Example 80, 8-[(2,6-Difluorobenzyl)oxy]-N-(1H-indazol-3-yl)-2-methylimidazo[1,2-a]pyridine-3-carboxamide] |
| 1.0 | Cc1nc2c(OCc3c(F)cccc3F)cccn2c1C(=O)Nc1cn(C)nc1CO [Example 81] |
| 0.3 | Cc1nc2c(OCc3c(F)cccc3F)cc(Cl)cn2c1C(=O)Nc1cnn2ccccc12 [Example 82] |
| 3.0 | Cc1nc2c(OCc3c(F)cccc3F)cccn2c1C(=O)Nc1nnc(CCOC(C)C)s1 [Example 83] |
| 3.0 | Cc1nc2c(OCc3c(F)cccc3F)cccn2c1C(=O)Nc1nnc(C2CC2)s1 [Example 84] |
| 0.1 | Cc1cc(OCc2c(F)cccc2F)c2nc(C)c(C(=O)Nc3cnn(CC(F)(F)F)c3)n2c1 [Example 85] |
| 0.3 | Cc1cc(OCc2c(F)cccc2F)c2nc(C)c(C(=O)Nc3cnn(CCO)c3)n2c1 [Example 86] |
| 0.3 | Cc1cc(OCc2c(F)cccc2F)c2nc(C)c(C(=O)Nc3c(C)nn(CCO)c3C)n2c1 [Example 87] |
| 0.65 | Cc1nc2c(OCc3c(F)cccc3F)cccn2c1C(=O)Nc1c(C(C)(C)O)n[nH]c1C [Example 88] |
| 0.1 | Cc1cc(OCc2c(F)cccc2F)c2nc(C)c(C(=O)Nc3cnn(COCC(F)(F)F)c3)n2c1 [Example 89] |
| 0.3 | Cc1nc2c(OCc3c(F)cccc3F)cccn2c1C(=O)Nc1cnn(COCC(F)(F)F)c1 [Example 90] |
| 0.01 | Cc1cc(OCc2c(F)cccc2F)c2nc(C)c(C(=O)Nc3ccnc4ccc(F)cc34)n2c1 [Example 91, 8-[(2,6-Difluorobenzyl)oxy]-N-(6-fluoroquinolin-4-yl)-2,6-dimethylimidazo[1,2-a]pyridine-3-carboxamide] |

| MEC [µM] | SMILES |
| --- | --- |
| 0.1 | Cc1nc2c(OCc3c(F)cccc3F)cc(Cl)cn2c1C(=O)Nc1ccnc2ccc(F)cc12 [Example 92] |
| 1.0 | Cc1ccncc1NC(=O)c1c(C)nc2c(OCc3c(F)cccc3F)cccn12 [Example 93] |
| 0.1 | Cc1cc(OCc2c(F)cccc2F)c2nc(C)c(C(=O)Nc3c(C(F)(F)F)n[nH]c3C)n2c1 [Example 94] |
| 0.3 | Cc1nc2c(OCc3c(F)cccc3F)cccn2c1C(=O)Nc1cccnc1 [Example 95] |
| 3.0 | Cc1nc2c(OCc3c(F)cccc3F)cccn2c1C(=O)Nc1ccc(N2CCN(C)CC2)cc1 [Example 96] |
| 1.0 | Cc1nc2c(OCc3c(F)cccc3F)cccn2c1C(=O)Nc1ccc(N2CCN(C)CC2)c(C(F)(F)F)c1 [Example 97] |
| 1.0 | Cc1nc2c(OCc3c(F)cccc3F)cccn2c1C(=O)Nc1ccc(NCCO)cc1 [Example 98] |
| 3.0 | Cc1nc2c(OCc3c(F)cccc3F)cccn2c1C(=O)Nc1cccc(N2CCN(C)CC2)c1 [Example 99] |
| 1.65 | Cc1nc2c(OCc3c(F)cccc3F)cccn2c1C(=O)Nc1ccnc2cc(C(F)(F)F)ccc12 [Example 100] |
| 1.0 | Cc1cc(NC(=O)c2c(C)nc3c(OCc4c(F)cccc4F)cccn23)cc(C)n1 [Example 101] |
| 0.3 | CCOc1cc(NC(=O)c2c(C)nc3c(OCc4c(F)cccc4F)cccn23)cc(C)n1 [Example 102] |
| 1.0 | Cc1nc2c(OCc3c(F)cccc3F)cccn2c1C(=O)Nc1nn(C)c2ccc(C(F)(F)F)cc12 [Example 103, 8-[(2,6-Difluorobenzyl)oxy]-2-methyl-N-[1-methyl-5-(trifluoromethyl)-1H-indazol-3-yl]imidazo[1,2-a]pyridine-3-carboxamide] |
| 3.0 | Cc1nc2c(OCc3c(F)cccc3F)cc(Cl)cn2c1C(=O)Nc1ccccc1CN [Example 104, N-[2-(Aminomethyl)phenyl]-6-chloro-8-[(2,6-difluorobenzyl)oxy]-2-methylimidazo[1,2-a]pyridine-3-carboxamide] |
| 1.0 | Cc1nc2c(OCc3c(F)cccc3F)cccn2c1C(=O)Nc1ccc(N2CCNCC2)c(F)c1 [Example 106, 8-[(2,6-difluorobenzyl)oxy]-N-[3-fluoro-4-(piperazin-1-yl)phenyl]-2-methylimidazo[1,2-a]pyridine-3-carboxamide] |
| 1.0 | Cc1nc2c(OCc3c(F)cccc3F)cccn2c1C(=O)Nc1ccc(N2CCNCC2)c(C(F)(F)F)c1 [Example 107, 8-[(2,6-difluorobenzyl)oxy]-2-methyl-N-[4-(piperazin-1-yl)-3-(trifluoromethyl)phenyl]imidazo[1,2-a]pyridine-3-carboxamide] |
| 1.0 | Cc1cc(N2CCNCC2)ccc1NC(=O)c1c(C)nc2c(OCc3c(F)cccc3F)cc(Cl)cn12 [Example 108, 6-chloro-8-[(2,6-difluorobenzyl)oxy]-2-methyl-N-[2-methyl-4-(piperazin-1-yl)phenyl]imidazo[1,2-a]pyridine-3-carboxamide] |
| 3.0 | Cc1nc2c(OCc3c(F)cccc3F)cc(Cl)cn2c1C(=O)Nc1ccc(N2CCNCC2)c(F)c1 [Example 109, 6-chloro-8-[(2,6-difluorobenzyl)oxy]-N-[3-fluoro-4-(piperazin-1-yl)phenyl]-2-methylimidazo[1,2-a]pyridine-3-carboxamide] |
| 1.0 | Cc1nc2c(OCc3c(F)cccc3F)cccn2c1C(=O)Nc1ccccc1CN [Example 111, N-[2-(Aminomethyl)phenyl]-8-[(2,6-difluorobenzyl)oxy]-2-methylimidazo[1,2-a]pyridine-3-carboxamide] |
| 0.3 | Cc1cc(OCc2c(F)cccc2F)c2nc(C)c(C(=O)Nc3ccccc3CN)n2c1 [Example 112, N-[2-(Aminomethyl)phenyl]-8-[(2,6-difluorobenzyl)oxy]-2,6-dimethylimidazo[1,2-a]pyridine-3-carboxamide] |
| 0.3 | Cc1cc(OCc2c(F)cccc2F)c2nc(C)c(C(=O)Nc3ccc(F)cc3CN)n2c1 [Example 113, N-[2-(Aminomethyl)-4-fluorophenyl]-8-[(2,6-difluorobenzyl)oxy]-2,6-dimethylimidazo[1,2-a]pyridine-3-carboxamide] |
| 0.3 | Cc1nc2c(OCc3c(F)cccc3F)cccn2c1C(=O)Nc1n[nH]c2ccc(C(F)(F)F)cc12 [Example 114, 8-[(2,6-Difluorobenzyl)oxy]-2-methyl-N-[5-(trifluoromethyl)-1H-indazol-3-yl]imidazo[1,2-a]pyridine-3-carboxamide] |
